# Test results as given in patent US10278948B1, “Method for transnasal delivery of anticonvulsant and therapeutic treatments” (priority 2015, dated 2019).
# Like-named read-outs stand apart in the source and are kept apart here.
# Key:
# [1] = Transnasal administration of topiramate to the sphenopalatine ganglion in human patients (Example 1); assay type: in vivo
# Description: The devices and methods described above were applied to the treatment of human patients for headache pain, when the inventor observed a dramatic effect with regard to treating obesity and promoting weight-loss. The results of this testing are surprising and unexpected in view of efficacy of the very low dosages administered as compared to published treatment regimens using topiramate without any co-delivered medicament for the treatment of obesity. […] The method of treatment was as follows: Topiramate was dissolved in sterile water to a concentration of 5 mg/mL. Then, 0.3 mL of this solution (1.5 mg of topiramate) per nostril was administered transnasally to the sphenopalatine ganglion using a Tx360® nasal applicator (from Tian Medical of Lombard, Ill.) in the manner described above with reference to the devices shown in FIGS. 6-11B and the relative distal-end anatomic positioning described with reference to FIGS. 4-5. This dosage was administered once per week for four weeks. Each patient lost between 5% and 10% of his/her body weight over the four-week period. […] It is expected that dosage may be effective for headache pain and for promoting weight loss as treatment for obesity at a frequency from once or twice per day to once per month when administered at […] delivered as about 0.2-0.3 mL per nostril toward the SPG. Although this sample is very small, it compares highly favorably to published studies using topiramate for weight loss, and the effective dosage was surprising far lower than the effective dosages reported in the literature. As a first example, in Obesity Review 2011 May; 12(5):e338-47. doi: 10.1111/j.1467-789X.2010.00846.x. Epub 2011 Mar. 28. Efficacy and safety of topiramate on weight loss: a meta-analysis of randomized controlled trials, ten clinical studies (3320 individuals) were evaluated, each of which was a randomized controlled study with at least 16 weeks of duration that reported the effect of topiramate on weight loss and adverse events using topiramate at 96-200 mg/day. […] Although the etiology is not apparent, a highly reasonable hypothesis is that the side effects and lack thereof, respectively, may be related to the significant dosage difference and/or administration mode (96-200 mg/day perorally versus 3 mg/week transnasally).
# [2] = cited from earlier work; for mean percent weight loss from baseline to week 24: placebo −2.6%
# [3] = 96-200 mg/day perorally, at least 16 weeks, ten clinical studies (3320 individuals); cited from earlier work
# [4] = cited from earlier work
# [5] = every patient, after the first dosage, 3 mg transnasally to the SPG
compound,measurement,setting,value
"CC1(C)O[C@@H]2[C@@H](CO[C@@]3(COS(N)(=O)=O)OC(C)(C)O[C@@H]23)O1 [topiramate, 2,3:4,5-bis-O-(1-methylethylidene)-β-D-fructopyranose sulfamate]","side effects (paresthesia, taste impairment and psychomotor disturbances) reported by patients",[1]; 3 mg/week transnasally to the SPG,none of which was reported by patients in the presently-reported example
same,regular headache pain (patient-reported),"[1]; all patients, 3 mg/week transnasally to the SPG",reduced in frequency and severity
same,"craving for food, nicotine, and alcohol (patient-reported)",[1]; [5],"immediate reduction of craving for food, nicotine, and alcohol"
same,satiety (needing less food intake to feel full; patient-reported),[1]; [5],improved satiety
same,patients with effective weight loss,"[1]; human patients, 1.5 mg per nostril (3 mg) transnasally to the SPG once per week for four weeks",100%
same,mean percent weight loss from baseline to week 24,[2]; 64 mg/day topiramate group,−5.0%
same,mean percent weight loss from baseline to week 24,[2]; 96 mg/day topiramate group,−4.8%
same,mean percent weight loss from baseline to week 24,[2]; 192 mg/day topiramate group,−6.3%
same,mean percent weight loss from baseline to week 24,[2]; 384 mg/day topiramate group,−6.3%
same,most frequent adverse events,"[2]; 64-384 mg daily, 24 weeks","paresthesia, somnolence, and difficulty with memory, concentration, and attention"
same,percentages of patients who lost at least 5% or 10% of body weight compared with placebo,"[2]; 64-384 mg daily, 24 weeks",Greater percentages of topiramate-treated patients lost at least 5% or 10% of body weight compared with placebo
same,frequently observed side effects,[3],"paresthesia, taste impairment and psychomotor disturbances"
same,solubility in water,[4],up to 9.8 mg/mL
